Counter-ions that a name gives are not always drawn.
Columns and labels:
SMN2 mRNA = assay: Splicing RT-qPCR panel, SMN2 canonical junction (CJ) mRNA; type: cell-based, human; details: Homo sapiens, read-out: SMN2 CJ (decrease in CJ mRNA levels, IC50)
Method in brief: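 A673 cells (DMEM, 10% FBS) or K562 cells (IMDM, 10% FBS) treated 24 h at 37 °C with an 11-point 3-fold dilution, top 10 uM, DMSO ≤0.25%. Canonical-junction mRNA quantified in lysates by RT-qPCR, normalised to GAPDH, GUSB or PPIA and to DMSO (2^−ΔΔCt), then converted to % response.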

Target C = assay: HiBiT protein abundance assay, Target C (K562 HiBiT knock-in); type: cell-based, human; details: HiBiT knock-in cells, 24 hours
Experimental: (§1) Cells were maintained in IMDM with 10% FBS. Before the assay, cells were diluted with […] growth media (IMDM+1% FBS media) and were seeded in a 384-well plate at a density of 10000 cells/well (for each cell line listed in Table 6). Each compound was prepared as a 10-point 3-old serial dilution in DMSO with the top dose at a final concentration of 10 μM in the well. Unmodified K562 cells were added at the previously specified density with DMSO to serve as an assay baseline and positive control (PC) and DMSO only with the respective modified cell lines was added to the negative control (NC) columns. Final DMSO concentration was kept at or below 0.25%. Treated cell plates were placed in an incubator at 37° C. with 5% CO2 for 24 hours. After 24 hours, 25 μL of Complete HiBit Lytic reagent was added to each well at room temperature (e.g. one plate requiring 10 ml Lytic Buffer, 100 μL LgBiT Protein, 200 μL Lytic Substrate), shaken for 5 minutes at 600 RPM, then left to sit for 10 minutes for signal to stabilize before reading on a Spark Cyto plate reader (Tecan) with a 500 ms measurement time.
(§2) To determine compound effects on protein abundance of each target in Table 6, the percent response for each respective cell line was calculated at each compound concentration as follows:
(§3) For the normalized response at each concentration, a four-parameter logistical regression was fit to the data and the response was interpolated at the 50% value to determine a concentration for protein abundance at 50% (IC50) the untreated control.

HiBiT-tagged HTT protein = assay: HiBiT protein abundance assay, HTT (K562 HiBiT knock-in); type: cell-based, human; details: HiBiT knock-in cells, 24 hours
Experimental: (§4) Compounds described herein were used to screen for effects on quantitative protein abundance using a HiBit assay system (Promega). Quantitative protein abundance was determined by measuring the protein levels of HiBit-tagged protein targets expressed in cell culture via luminescence using the Nano-Glo HiBiT Lytic Detection System, which uses a split complementation assay format to reconstitute NanoBiT enzyme to generate a luminescent signal. A protein abundance assay was developed such that endogenous protein targets could be modified with the HiBiT peptide tag and their abundance could be assessed after compound treatment. Briefly, K562 cell lines containing a HiBiT-modification were treated with various compounds described herein (e.g., compounds of Formulas (I), or (II)). After treatment for 24 hours, the protein abundance of a specific target was determined by measuring luminescence.
(§5) • Promega Nano-Glo HiBiT Lytic Detection System (cat #N3030) • Corning 384-well TC-treated microplates (cat #3570)
as §1, §2, §3

K562 cells = assay: Cell viability, Cell Titer Glo 2.0 assay, K562; details: 72 hours
HiBiT-tagged MYB protein = assay: HiBiT protein abundance assay, MYB (K562 HiBiT knock-in); type: cell-based, human; details: HiBiT knock-in cells, 24 hours
Experimental: as §4, §5, §1, §2, §3

Compound	IC50 (SMN2 mRNA)	IC50 (Target C)	IC50 (HiBiT-tagged HTT protein)	IC50 (HiBiT-tagged MYB protein)	Effect on Cell Viability, K562 (K562 cells)
CN[C@@H]1CN(c2cnc3nc(-c4cc5cn(C)nc5c(C)c4O)ccc3c2)C[C@H]1F (single isomer, unassigned) [Compound 130]	< 100 nM	100 to 1000 nM	100 to 1000 nM	100 to 1000 nM	B (100-1000 nM)
CN[C@H]1CN(c2cnc3nc(-c4cc5cn(C)nc5c(C)c4O)ccc3c2)C[C@@H]1F (single isomer, unassigned) [Compound 131]	< 100 nM	1000 to 10000 nM	1000 to 10000 nM	100 to 1000 nM	C (1000-9999 nM)
Cc1c(O)c(-c2ccc3cc(N4CCC(NCC5CC5)C4)cnc3n2)cc2cn(C)nc12 (stereo in doubt) [Compound 119, 5-{6-[(3R)-3-[(cyclopropylmethyl)amino]pyrrolidin-1-yl]-1,8-naphthyridin-2-yl}-2,7-dimethylindazol-6-ol]	< 100 nM	100 to 1000 nM	< 100 nM	< 100 nM	A (<100 nM)
CN[C@@H]1CCN(c2cnc3nc(-c4cc5cn(C)nc5c(C)c4O)ncc3c2)C1 [Compound 107, 2,7-dimethyl-5-{6-[(3R)-3-(methylamino)pyrrolidin-1-yl]pyrido[2,3-d]pyrimidin-2-yl}indazol-6-ol hydrochloride]	< 100 nM	< 100 nM	< 100 nM	< 100 nM	A (<100 nM)
CN[C@H]1CCN(c2cnc3nc(-c4cc(C)c5nc(C)cn5n4)ccc3c2)C1 [Compound 116]	< 100 nM	< 100 nM	< 100 nM	< 100 nM	A (<100 nM)
CN[C@@H]1CCN(c2cnc3nc(-c4cc(C)c5nc(C)cn5n4)ccc3c2)C1 [Compound 117]	< 100 nM	100 to 1000 nM	100 to 1000 nM	< 100 nM	B (100-1000 nM)
Cc1c(O)c(-c2ccc3cc(N4CC[C@@H](NCC5CC5)C4)cnc3n2)cc2cn(C)nc12 [Compound 118]	< 100 nM	< 100 nM	< 100 nM	< 100 nM	A (<100 nM)
CN[C@H]1CCN(c2cnc3nc(-c4cc5cn(C)nc5c(C)c4O)ncc3c2)C1 [Compound 120]	< 100 nM	1000 to 10000 nM	100 to 1000 nM	< 100 nM	A (<100 nM)
CCN[C@H]1CCN(c2cnc3nc(-c4cc5cn(C)nc5c(C)c4O)ccc3c2)C1 [Compound 123]	< 100 nM	100 to 1000 nM	< 100 nM	< 100 nM	
CN(c1cnc2nc(-c3cc4cn(C)nc4c(F)c3O)ccc2c1)C1CCNCC1 [Compound 284]	< 100 nM	1000 to 10000 nM	1000 to 10000 nM	100 to 1000 nM	
Cc1cn2cc(-c3cc(Cl)c4cc(N5C[C@H](C)N[C@@H](C)C5)cnc4n3)cc(F)c2n1 [Compound 298]		1000 to 10000 nM	100 to 1000 nM	< 100 nM	B (100-1000 nM)
Cc1cn2nc(-c3cc(Cl)c4cc(N5C[C@H](C)N[C@@H](C)C5)cnc4n3)cc(C)c2n1 [Compound 336]		100 to 1000 nM	100 to 1000 nM	< 100 nM	B (100-1000 nM)
Cc1c(O)c(-c2cc(Cl)c3cc(N4CCNC5(CC5)C4)cnc3n2)cc2cn(C)nc12 [Compound 381]		1000 to 10000 nM	100 to 1000 nM	< 100 nM	B (100-1000 nM)

Now from value to compound, other results behind:

IC50 (SMN2 mRNA)	IC50 (Target C)	IC50 (HiBiT-tagged HTT protein)	IC50 (HiBiT-tagged MYB protein)	Compound	Effect on Cell Viability, K562 (K562 cells)
< 100 nM	100 to 1000 nM	100 to 1000 nM	< 100 nM	CNC1CCN(c2cnc3nc(-c4cc5cn(C)nc5c(C)c4O)ncc3c2)C1 (stereo not shown) [Compound 104, 2,7-dimethyl-5-{6-[3-(methylamino)pyrrolidin-1-yl]pyrido[2,3-d]pyrimidin-2-yl}indazol-6-ol]	A (<100 nM)
< 100 nM	< 100 nM	< 100 nM	< 100 nM	Cc1c(O)c(-c2ccc3cc(N4CCC(NCC5CC5)C4)cnc3n2)cc2cn(C)nc12 (stereo not shown) [Compound 105, 5-(6-{3-[(cyclopropylmethyl)amino]pyrrolidin-1-yl}-1,8-naphthyridin-2-yl)-2,7-dimethylindazol-6-ol]	A (<100 nM)
< 100 nM	< 100 nM	< 100 nM	< 100 nM	CCNC1CCN(c2cnc3nc(-c4cc5cn(C)nc5c(F)c4O)ccc3c2)C1 (stereo not shown) [Compound 106, 5-{6-[3-(ethylamino)pyrrolidin-1-yl]-1,8-naphthyridin-2-yl}-7-fluoro-2-methylindazol-6-ol]	A (<100 nM)
< 100 nM	100 to 1000 nM	100 to 1000 nM	< 100 nM	CN[C@@H]1CCN(c2cnc3nc(-c4cc5cn(C)nc5c(C)c4O)ccc3c2)C1 [Compound 112]	B (100-1000 nM)
100 to 1000 nM	1000 to 10000 nM	1000 to 10000 nM	1000 to 10000 nM	Cc1cn2nc(-c3cnc4nc(C5CCNCC5)ccc4c3)cc(C)c2n1 [Compound 115, 6-(2,8-dimethylimidazo[1,2-b]pyridazin-6-yl)-2-(piperidin-4-yl)-1,8-naphthyridine]	C (1000-9999 nM)
< 100 nM	1000 to 10000 nM	100 to 1000 nM	< 100 nM	Cc1c(O)c(-c2cc(C3CC3)c3cc(N4CCNCC4)cnc3n2)cc2cn(C)nc12 [Compound 144, 5-(4-cyclopropyl-6-(piperazin-1-yl)-1,8-naphthyridin-2-yl)-2,7-dimethyl-2H-indazol-6-ol bis(2,2,2-trifluoroacetate)]	
< 100 nM	100 to 1000 nM	100 to 1000 nM	< 100 nM	Cc1cc(-c2cc3cn(C)nc3c(C)c2O)nc2ncc(N3CCNCC3)cc12 [Compound 151, 2,7-dimethyl-5-[4-methyl-6-(piperazin-1-yl)-1,8-naphthyridin-2-yl]indazol-6-ol]	
	100 to 1000 nM	100 to 1000 nM	< 100 nM	Cc1cn2nc(-c3ccc4c(Cl)c(N5C[C@H](C)N[C@@H](C)C5)cnc4n3)cc(C)c2n1 [Compound 393, 5-chloro-2-{2,8-dimethylimidazo[1,2-b]pyridazin-6-yl}-6-[(3S,5S)-3,5-dimethylpiperazin-1-yl]-1,8-naphthyridine]	B (100-1000 nM)
